The results in this text go back to ChEMBL document CHEMBL1201862, “PubChem BioAssay data set” (2004).

Each structure is given as a SMILES string.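 96-well plates; 48 h exposure; 5 concentrations. Endpoints by linear interpolation between flanking doses. Not reached: highest tested concentration assigned. GI50: concentration for 50% inhibition of growth.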 Active and inactive are the calls of the source. Cut-off read from the data, not from the text of the source: active = GI50 up to about 1.1 µM and inactive = higher.

Common to all, as to assay: NCI-60 cell line screen, 48 h
Test [1] concerns 786-0.
The test system of test [2] is CAKI-1.
Test [3] concerns COLO 205.
The test system of test [4] is HL-60.
In test [5] the test system is LOX IMVI.
The subject of test [6] is M14.
Test [7] concerns MDA-MB-231.
Test [8] relates to MDA-MB-435.
Test [9] has as its system MDA-N.
For test [10], the system named is MOLT-4.
Test [11] deals with NCI-H226.
In test [12] the test system is NCI/ADR-RES.
Test [13] has as its system OVCAR-4.
For test [14], the system named is RPMI-8226.
In test [15] the test system is SK-MEL-5.
Test [16] has as its system SN12C.
Test [17] deals with T47D.
Test [18] relates to U-251.
The subject of test [19] is UACC-62.
Test [20] has as its system UO-31.

In the case of `Cc1ccc(S(=O)(=O)Nc2cc(O)nc3c2CCC3)cc1`, the GI50 in [1] was > 100 µM (inactive); in test [2] it was > 100 µM (inactive); in [3], > 100 µM (inactive); in test [4], 34 µM (inactive); in test [5] it was > 100 µM (inactive); in [6], > 100 µM (inactive). In addition, the GI50 in [7] was > 100 µM (inactive); in test [8] it was > 100 µM (inactive); in [9], > 100 µM (inactive); in test [10], 42.9 µM (inactive); in [11] it was > 100 µM (inactive); in [12], > 100 µM (inactive). Moreover, the GI50 in test [13] was 57.1 µM (inactive); in test [14] it was 43.2 µM (inactive); in [15] it was 73.5 µM (inactive); in test [16], > 100 µM (inactive); in [17], > 100 µM (inactive); in test [18] it was > 100 µM (inactive). In addition, the GI50 in [19] and in [20] was > 100 µM (inactive) in each case.

For the compound `O[C@H]1[C@H]2c3cc4c(cc3CN3CCC(=C[C@@H]1O)[C@H]23)OCO4` [LYCORINE], the GI50 in test [1] was 3.1 µM (inactive); in test [2], 1.24 µM (inactive); in test [3], 1.25 µM (inactive); in [4], 2.14 µM (inactive); in test [5] it was 0.971 µM (active); in test [6] it was 1.86 µM (inactive). In addition, the GI50 in test [7] is 1.65 µM (inactive); in [8], 2.07 µM (inactive); in [9] it was 2.59 µM (inactive); in test [10], 1.29 µM (inactive); in [11], 2.76 µM (inactive); in [12], 2.31 µM (inactive). Besides, the GI50 was 1.34 µM (inactive) in [13]; 2.01 µM (inactive) in test [14]; 1.42 µM (inactive) in test [15]; 1.7 µM (inactive) in test [16]; 2.49 µM (inactive) in test [17]; 1.99 µM (inactive) in [18]. Besides, the GI50 is 2.08 µM (inactive) in test [19] and 1.47 µM (inactive) in test [20].

As to `Cc1ccc2cccc(OC(=O)c3cc4c(cc3Cl)Sc3nccn3S4(=O)=O)c2n1`, the GI50 in test [1] is 17 µM (inactive); in test [2], 26.6 µM (inactive); in [3] it was 15.8 µM (inactive); in test [4] it was < 0.01 µM (active); in test [5], 7.13 µM (inactive); in [6], 8.79 µM (inactive). Besides, the GI50 in test [7] was 14.1 µM (inactive); in test [8], 9.59 µM (inactive); in test [9], 14.4 µM (inactive); in [10], 4.55 µM (inactive); in test [11] it was 21 µM (inactive); in test [12], 14 µM (inactive). Moreover, the GI50 in test [13] was 11.3 µM (inactive); in test [14], 2.33 µM (inactive); in test [15], 12.3 µM (inactive); in test [16], 12.8 µM (inactive); in [17], 4.44 µM (inactive); in test [18], 4.34 µM (inactive). The GI50 in test [19] was 14.7 µM (inactive); in test [20], 2.05 µM (inactive).

Regarding `CCN(C(C)=O)c1cnc(/C=N/NC(N)=S)c2ccccc12`, the GI50 in test [1] was 1.61 µM (inactive); in test [2] it was 3.3 µM (inactive); in test [3], 4.83 µM (inactive); in [4], 1.77 µM (inactive); in test [5], 1.38 µM (inactive); in test [6] it was 2.58 µM (inactive). Besides, the GI50 in test [7] is 18.6 µM (inactive); in test [8] it was 4.42 µM (inactive); in test [9], 7.01 µM (inactive); in test [10] it was 1.96 µM (inactive); in [11] it was 3.44 µM (inactive); in test [12], 10.6 µM (inactive). Further, the GI50 in test [13] is 9.31 µM (inactive); in [14], 3.08 µM (inactive); in test [15] it was 2.84 µM (inactive); in test [16], 3.21 µM (inactive); in test [17], 5.69 µM (inactive); in test [18] it was 3.85 µM (inactive). Besides, the GI50 in [19] is 3.3 µM (inactive); in test [20], 1.81 µM (inactive).

Consider `CN(C)/C=N\c1cccc2c1NSN2`, for which the GI50 in test [1], in [2], in [3], in test [4], in [5] and in [6] was > 100 µM (inactive) throughout. For the same compound, the GI50 in test [7], in test [8], in [9], in test [10], in test [11] and in test [12] was > 100 µM (inactive) each time. Besides, the GI50 in test [13], in test [14], in [15], in test [16], in test [17] and in test [18] was > 100 µM (inactive) throughout. Also, the GI50 in test [19] and in [20] was > 100 µM (inactive) in each case.

In the case of `N#C/C(=C/n1c(=S)[nH]c2ccccc21)C(N)=O`, the GI50 in [1] is > 100 µM (inactive); in [2], > 100 µM (inactive); in test [3], > 100 µM (inactive); in test [4], 16.7 µM (inactive); in [5], > 100 µM (inactive); in test [6], > 100 µM (inactive). Further, the GI50 in test [7], in test [8], in test [9], in test [10], in test [11] and in [12] was > 100 µM (inactive) each time. The GI50 in test [13], in test [14], in test [15], in test [16], in [17] and in [18] was > 100 µM (inactive) throughout. The GI50 in [19] and in test [20] was > 100 µM (inactive) throughout.

For the compound `CCOC(=O)c1cccc(/N=N/c2nc[nH]c2/C=C/C(=O)OC)c1`, the GI50 in test [1] was 7.36 µM (inactive); in test [2] it was 4.97 µM (inactive); in test [3] it was 4.39 µM (inactive); in [4], 3.37 µM (inactive); in [5] it was 7.43 µM (inactive); in [6], 13.3 µM (inactive). Further, the GI50 was 4.39 µM (inactive) in [7]; 37 µM (inactive) in [8]; 28.4 µM (inactive) in test [9]; 3.01 µM (inactive) in [10]; 64.4 µM (inactive) in [11]; 4.1 µM (inactive) in [12]. Further, the GI50 was 6.58 µM (inactive) in [13]; 9.02 µM (inactive) in [14]; 7.36 µM (inactive) in [15]; 5.97 µM (inactive) in test [16]; 9.95 µM (inactive) in test [17]; 6.73 µM (inactive) in test [18]. The figures for the GI50 in test [19] and in test [20] were 23.6 µM (inactive) and 8.15 µM (inactive), respectively.

As to `Nc1nc2c(ncn2C2C=CC(COS(N)(=O)=O)C2)c(=O)[nH]1` (stereo not given), the GI50 in test [1], in test [2], in test [3], in test [4], in test [5] and in test [6] was > 100 µM (inactive) throughout. Further, the GI50 in test [7], in test [8], in [9], in [10], in test [11] and in [12] was > 100 µM (inactive) throughout. Also, the GI50 in [13], in test [14], in [15], in [16], in test [17] and in test [18] was > 100 µM (inactive) each time. Besides, the GI50 in [19] and in test [20] was > 100 µM (inactive) in each case.

In the case of `Nc1cccc2nsnc12`, the GI50 was > 100 µM (inactive) in test [1]; 74.3 µM (inactive) in [2]; 29.3 µM (inactive) in test [3]; 3.31 µM (inactive) in test [4]; > 53.1 µM (inactive) in test [5]; > 83.9 µM (inactive) in [6]. The GI50 in test [7] is > 100 µM (inactive); in [8] it was 31.6 µM (inactive); in test [9] it was 49.8 µM (inactive); in test [10] it was 12.9 µM (inactive); in test [11] it was > 100 µM (inactive); in test [12] it was > 100 µM (inactive). Besides, the GI50 was > 100 µM (inactive) in test [13]; 17.8 µM (inactive) in test [14]; 36.3 µM (inactive) in [15]; > 100 µM (inactive) in test [16]; 49.1 µM (inactive) in test [17]; > 100 µM (inactive) in [18]. In addition, the values for the GI50 in [19] and in test [20] were 48.6 µM (inactive) and > 40.5 µM (inactive), respectively.

For the compound `O=C(N/N=C\c1c(O)ccc2ccccc12)c1ccncc1`, the GI50 was 0.2 µM (active) in test [1]; 1 µM (active) in test [2]; 0.82 µM (active) in [3]; 0.518 µM (active) in test [4]; 0.301 µM (active) in test [5]; 0.474 µM (active) in test [6]. Further, the GI50 was 0.254 µM (active) in test [7]; 1.65 µM (inactive) in test [8]; 1.33 µM (inactive) in test [9]; 0.0313 µM (active) in [10]; 0.628 µM (active) in test [11]; 0.562 µM (active) in [12]. Besides, the GI50 in test [13] is 0.237 µM (active); in test [14], 0.364 µM (active); in test [15], 0.341 µM (active); in [16] it was 0.231 µM (active); in test [17], 2.49 µM (inactive); in [18] it was 0.29 µM (active). Also, the GI50 in test [19] was 0.467 µM (active); in test [20], 0.356 µM (active).
